This note sets out measurements from paper PMC6864590, “Planar Cell Polarity Effector Proteins Inturned and Fuzzy Form a Rab23 GEF Complex” (Current Biology, 2019).

Residue numbers refer to the chain shown, from its start.

Assay [1] has as its target T1, Rab23 (Homo sapiens, UniProt Q9ULC3, N121I).
T1 construct: hexahistidine-GST-tagged (pFAT2), expressed in E. coli BL21(DE3) pRIL, Ni-NTA purified, tags kept
T1 sequence (Q9ULC3 1-237 N121I limits assumed): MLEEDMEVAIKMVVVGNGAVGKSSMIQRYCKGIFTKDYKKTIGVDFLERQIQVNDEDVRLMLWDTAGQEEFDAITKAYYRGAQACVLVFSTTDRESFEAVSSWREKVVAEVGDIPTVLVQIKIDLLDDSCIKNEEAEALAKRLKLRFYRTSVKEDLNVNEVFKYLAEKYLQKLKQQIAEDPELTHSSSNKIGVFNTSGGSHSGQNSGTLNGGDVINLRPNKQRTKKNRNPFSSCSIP
The assay is described as follows: radiolabelled nucleotide binding, GST pull-down. To be noted: labelled compound; pH 6.8.

A further assay has as its target T2, Rab32 (Homo sapiens, UniProt Q13637).
T2 construct: GST-tagged (pFAT2), expressed in E. coli BL21(DE3) pRIL, Ni-NTA purified
T2 sequence (Q13637 2-225): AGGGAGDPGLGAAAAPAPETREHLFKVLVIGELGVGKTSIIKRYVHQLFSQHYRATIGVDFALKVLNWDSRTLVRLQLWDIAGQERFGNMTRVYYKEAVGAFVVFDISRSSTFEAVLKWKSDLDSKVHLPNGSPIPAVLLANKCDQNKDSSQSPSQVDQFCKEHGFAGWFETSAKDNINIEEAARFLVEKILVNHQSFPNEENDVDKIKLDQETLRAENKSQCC
The assay is described as follows: [3H]-GDP release GEF endpoint assay, glutathione-Sepharose capture. It counts as binding. To be noted: labelled compound; Hps1-Hps4 GEF, Mg-GTP, pH 6.8, 30°C.

The target of assay [2] is T3, Rab23 (Homo sapiens, UniProt Q9ULC3, M12K).
T3 construct: hexahistidine-GST-tagged (pFAT2), expressed in E. coli BL21(DE3) pRIL, Ni-NTA purified, tags kept
T3 sequence (Q9ULC3 1-237 M12K limits assumed): T1 sequence (Q9ULC3 1-237 N121I limits assumed) with M12K, I121N
The experiment in a line: radiolabelled nucleotide binding, GST pull-down. To be noted: labelled compound; pH 6.8.

Assay [3] concerns the target T4, Rab23 (Homo sapiens, UniProt Q9ULC3, C85R).
T4 construct: hexahistidine-GST-tagged (pFAT2), expressed in E. coli BL21(DE3) pRIL, Ni-NTA purified, tags kept
T4 sequence (Q9ULC3 1-237 C85R limits assumed): T1 sequence (Q9ULC3 1-237 N121I limits assumed) with C85R, I121N
The assay is described as follows: radiolabelled nucleotide binding, GST pull-down. The note with it: labelled compound; pH 6.8.

In assay [4] the target is T5, Rab23 (Homo sapiens, UniProt Q9ULC3).
T5 construct: hexahistidine-GST-tagged (pFAT2), expressed in E. coli BL21(DE3) pRIL, Ni-NTA purified, tags kept
T5 sequence (Q9ULC3 1-237 limits assumed): T1 sequence (Q9ULC3 1-237 N121I limits assumed) with I121N
The experiment in a line: [3H]-GDP release GEF endpoint assay, glutathione-Sepharose capture. The note with it: labelled compound; Intu-Fuz GEF, Mg-GTP, pH 6.8, 30°C. It counts as binding.

Another assay has as its target T6, Rab38 (Homo sapiens, UniProt P57729).
T6 construct: GST-tagged (pFAT2), expressed in E. coli BL21(DE3) pRIL, Ni-NTA purified
T6 sequence (P57729 1-211): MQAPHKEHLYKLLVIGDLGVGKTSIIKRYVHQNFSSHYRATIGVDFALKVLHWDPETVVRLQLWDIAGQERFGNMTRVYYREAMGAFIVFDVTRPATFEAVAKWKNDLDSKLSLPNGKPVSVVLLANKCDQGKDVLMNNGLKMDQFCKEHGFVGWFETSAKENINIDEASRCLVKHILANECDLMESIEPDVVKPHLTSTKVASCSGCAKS
The assay is described as above. It counts as binding. The note with it: labelled compound; Hps1-Hps4 GEF, Mg-GTP, pH 6.8, 30°C.

The target of a further assay is T7, Rab7 (Homo sapiens, UniProt P51149).
T7 construct: gene RAB7A; GST-tagged (pFAT2), expressed in E. coli BL21(DE3) pRIL, Ni-NTA purified
The assay is described as above. It counts as binding. To be noted: labelled compound; Mon1-Ccz1 GEF, Mg-GTP, pH 6.8, 30°C.

The target of assay [5] is T3, Rab23. The assay is described as follows: basal GTP hydrolysis endpoint, charcoal assay. It counts as biochemical. The note with it: labelled compound; 30°C, 60 min, no GAP.
Assay [6] deals with T1, Rab23. The experiment in a line: basal GTP hydrolysis endpoint, charcoal assay. It counts as biochemical. To be noted: labelled compound; 30°C, 60 min, no GAP.
Assay [7] concerns the target T5, Rab23. The experiment in a line: basal GTP hydrolysis endpoint, charcoal assay. To be noted: labelled compound; 30°C, 60 min, no GAP. Type of assay: biochemical.
For assay [8], the target named is T4, Rab23. The assay is described as follows: basal GTP hydrolysis endpoint, charcoal assay. To be noted: labelled compound; 30°C, 60 min, no GAP. Type of assay: biochemical.

T7 sequence (P51149 2-207): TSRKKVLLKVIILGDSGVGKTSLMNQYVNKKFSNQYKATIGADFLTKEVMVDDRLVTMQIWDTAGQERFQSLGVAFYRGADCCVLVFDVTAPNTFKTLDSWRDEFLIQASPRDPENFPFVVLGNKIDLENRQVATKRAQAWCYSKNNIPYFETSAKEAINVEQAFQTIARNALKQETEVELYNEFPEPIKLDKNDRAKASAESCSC

In the case of `Nc1nc2c(ncn2[C@@H]2O[C@H](COP(=O)(O)OP(=O)(O)O)[C@@H](O)[C@H]2O)c(=O)[nH]1` [GDP], the GDP binding result on Rab23 [1] is “Both Rab23^N121I and the two disease-associated mutants have reduced GDP-binding properties (Figure S3G)”; at Rab23 [2] it was “Both Rab23^N121I and the two disease-associated mutants have reduced GDP-binding properties (Figure S3G)”; at Rab23 [3], “Both Rab23^N121I and the two disease-associated mutants have reduced GDP-binding properties (Figure S3G)”. Moreover, the “GDP-GTP exchange (pmol)” value on Rab32 was “comparable to the Rab7 and Rab32/38-specific GEFs Mon1-Ccz1 and Hps1-Hps4, respectively (Figure 1D)”; on Rab23 [4], “Intu-Fuz complexes show specific GEF activity toward Rab23”; at Rab38 it was “comparable to the Rab7 and Rab32/38-specific GEFs Mon1-Ccz1 and Hps1-Hps4, respectively (Figure 1D)”; at Rab7 it was “comparable to the Rab7 and Rab32/38-specific GEFs Mon1-Ccz1 and Hps1-Hps4, respectively (Figure 1D)”.
Turning to `Nc1nc2c(ncn2[C@@H]2O[C@H](COP(=O)(O)OP(=O)(O)OP(=O)(O)O)[C@@H](O)[C@H]2O)c(=O)[nH]1` [GTP], the GTP hydrolysis entry on Rab23 [5], on Rab23 [6], at Rab23 [7] and at Rab23 [8] was “show an increased rate of basal GTP-hydrolysis (Figure S3H)” in each case.
